Experiment [1] has as its system Dm3MaT3. The experiment is described as follows: Enzyme activity, His-tag purified Dm3MaT3 protein solution. It counts as biochemical, chrysanthemum. The note with it: 10 μg Dm3MaT3 protein, 5 μl of 500 μg/ml substrate, malonyl-CoA, 20 minutes at 30° C., pH 7.0. As for the experimental part: The Escherichia coli strain BL21 introduced with pET32a-Dm3MaT3 described in Example 1 was cultured using the Overnight Express Autoinduction System 1 (Novagen) in accordance with the protocol recommended by the manufacturer. The transformed Escherichia coli was cultured at 37° C. in 8 ml of prepared culture broth until the OD600 value reached 0.5 (approximately 4 hours). This Escherichia coli broth was used as pre-culture broth and added to 200 ml of culture broth followed by culturing overnight at 25° C.
After culturing overnight, the Escherichia coli broth was centrifuged (1000×g, 4° C., 10 minutes) and the harvested bacterial cells were suspended in 20 ml of extraction buffer (composition: 300 mM KCl, 50 mM KH2PO4, 5 mM imidazole (pH 8.0), 10 μM amidinophenylmethanesulfonyl fluoride hydrochloride (APMSF)) followed by disrupting the Escherichia coli by ultrasonication, centrifuging (1400×g, 4° C., 20 minutes) and recovering the supernatant. The supernatant was passed through a 0.45 μm and subjected to His-Tagged purification using Profinia (Bio-Rad) in accordance with the protocol recommended by the manufacturer. The resulting purified protein solution was centrifuged (7500×g, 4° C., 15 minutes) using Centrifugal Filters (Ultracel-10K, Amicon Ultra) and the concentrated protein solution was used as “Dm3MaT3 protein solution”. The Avanti HP-26XP (rotor: JA-2) (Beckman Coulter) was used for centrifugation.
A reaction solution, obtained by mixing 30 μl of Dm3MaT3 protein solution (10 μg), 5 μl of 1 mg/ml malonyl-CoA, 5 μl of 1 M KPB (pH 7.0), 5 μl of 500 μg/ml luteolin 7-glucoside (dissolved in a 50% aqueous acetonitrile solution containing 0.1% TFA) and adjusting to a volume of 100 μl with water on ice, was held for 20 minutes at 30° C. Subsequently, 100 μl of stop buffer (90% aqueous acetonitrile solution containing 0.1% TFA) were added to stop the reaction followed by analyzing the reaction solution by high-performance liquid chromatography (Prominence, Shimadzu Corp.). Flavone was detected at 330 nm using the Shimadzu PDA SPD-M20A for the detector. […]

Experiment [2] concerns Dm3MaT3. Put plainly: Malonyl transfer activity of flower petal crude enzyme solution from genetically engineered rose introduced with Dm3MaT3 gene. It counts as biochemical. The note with it: 2.5 μl of 1 mM apigenin, malonyl-CoA, 20 minutes at 30° C.; genetically engineered rose petals. The text has this:
In order to confirm that the Dm3MaT3 gene of the present invention encodes a protein having activity that transfers a malonyl group to position 6 of the glucose at position 7 of flavone 7-glucoside in plants, a binary vector pSPB7136 was constructed to express Dm3MaT3 in plants (see FIG. 8) and subsequently introduced into a rose (variety: Ocean Song). pBINPLUS (Van Engel et al., Transgenic Research 4, 288) was used for the basic skeleton, E1235S promoter (Mitsuhara et al., (1996) Plant Cell Physiol., 37, p. 49) was used for the promoter expressing Dm3MaT3 gene, and HSP terminator (Plant Cell Physiol. (2010) 51, 328-332) was used for the terminator in pSPB7136.
A crude enzyme solution was prepared from the petals of a rose strain in which was synthesized the transcription product of full-length cDNA Dm3MaT3 followed by an evaluation of the presence or absence of activity transferring a malonyl group to position 6 of the glucose at position 7 of flavone 7-glucoside. […]
A reaction solution, obtained by mixing 20 μl of the flower petal crude enzyme solution, 5 μl of 1 mg/ml malonyl-CoA, 5 μl of 1 M KPB (pH 7.0) and 2.5 μl of 1 mM apigenin (dissolved in 50% aqueous acetonitrile solution containing 0.1% TFA) and adjusting to a volume of 100 μl with water on ice, was held for 20 minutes at 30° C. […] Flavone was detected at 330 nm using the Shimadzu PDA SPD-M20A for the detector. […]

For experiment [3], the system named is Dm3MaT3. The experiment is described as follows: Enzyme activity, protein solution crudely extracted from Escherichia coli expressing Dm3MaT3. Format: biochemical, chrysanthemum. To be noted: substrate with malonyl-CoA. The method, then:
The Shim-Pack ODS 150 mm×4.6 mm column (Shimadzu Corp.) was used for the column. […] The flow rate was 0.6 ml/min.

The test system of experiment [4] is Dm3MaT2. The experiment is described as follows: Enzyme activity, protein solution crudely extracted from Escherichia coli expressing Dm3MaT2. It counts as biochemical, chrysanthemum. The note with it: substrate with malonyl-CoA, 20 minutes at 30° C., pH 7.0, detection 330 nm.
The test system of experiment [5] is Dm3MaT1. Put plainly: Enzyme activity, protein solution crudely extracted from Escherichia coli expressing Dm3MaT1. Format: biochemical, chrysanthemum. The note with it: substrate with malonyl-CoA, 20 minutes at 30° C., pH 7.0, detection 330 nm.

Structures are written as SMILES.

Take `O=c1cc(-c2ccc(O)cc2)oc2cc(O[C@@H]3O[C@H](CO)[C@@H](O)[C@H](O)[C@H]3O)cc(O)c12` [apigenin 7-glucoside]: the “reaction rate (percentage of substrate converted)” value in experiment [1] worked out at 85.80%. `O=c1cc(-c2ccc(O)cc2)oc2cc(O)cc(O)c12` [apigenin]: the “peak corresponding to 7-malonylglucoside, share of the apigenin compounds in the enzyme reaction solution” value in experiment [2] amounted to 2.04%. In the case of `OC[C@H]1O[C@@H](Oc2cc3c(O)cc(O)cc3[o+]c2-c2ccc(O)c(O)c2)[C@H](O)[C@@H](O)[C@@H]1O` [cyanidin 3-glucoside], in experiment [3] (detection 520 nm), the “amount of cyanidin 3-glucoside consumed in comparison with Dm3MaT1” value is “clearly less” and the “peak corresponding to cyanidin 3-malonylglucoside (HPLC)” value was “detected”. In the case of `O=c1cc(-c2ccc(O[C@@H]3O[C@H](CO)[C@@H](O)[C@H](O)[C@H]3O)c(O)c2)oc2cc(O)cc(O)c12` [luteolin 4′-glucoside], the “reaction rate (percentage of substrate converted)” value in experiment [1] was determined as 34.81%. As to `O=c1cc(-c2ccc(O)c(O)c2)oc2cc(O[C@@H]3O[C@H](CO)[C@@H](O)[C@H](O)[C@H]3O)cc(O)c12` [luteolin 7-glucoside], the “peak corresponding to luteolin 7-malonylglucoside (HPLC)” value is recorded as “not detected” in experiment [4]; “detected” in experiment [3] (20 minutes at 30° C., pH 7.0, detection 330 nm); “not detected” in experiment [5]. For the same compound, the “reaction rate (percentage of substrate converted)” value in experiment [1] is listed as 81.13%.

Values taken from US20200123555A1, “USE OF MALONYLTRANSFERASE GENE” (Suntory Holdings Limited, priority 2017, published 2020).
